Legend:
[1] = target: rat brain benzodiazepine receptors (3H-diazepam receptor); experiment: benzodiazepine receptor binding test in vitro (inhibition of specific 3H-diazepam binding to rat brain membranes); details: Ki = IC50/(1+C/KD), read-out: Ki (inhibitor constant, 3H-diazepam binding)
Source text: The pharmacological properties of the compounds of the present invention were first investigated by submitting them to the benzodiazepine receptor binding test in vitro.

[2] = system: male rats of the CFHB Wistar strain; experiment: conditioned avoidance test (secondary conditioned response, pole climbing); format: in vivo, rat (CFHB Wistar); details: intraperitoneally, doses of between about 1/30 and 1/10 of the corresponding LD50s
Method: (§1) Some of the compounds of the above list were also tested in vivo in those pharmacological tests thought to be predictive of anxiolytic activity in man. Classical pharmacological tests employed to confirm the antianxiety activity were the conditioned avoidance test and the antipentylenetetrazole test in mice. The conditioned avoidance test was carried out according to the method described by Cook and Weidley in Ann. N.Y. Acad. Sci. 1957, 66, 740, and subsequently modified by Maffii (J. Pharm. and Pharmacol., 1959, 11, 129-139). In this procedure a rat is placed in a chamber with a grid floor through which electric shocks may be delivered. This chamber is also equipped with a buzzer and with a wooden pole, electrically isolated, which is suspended from the top of the experimental chamber.
The animal soon learns to escape the shock by climbing the pole (unconditioned response--U.R.) and by climbing the pole in response to the buzzer alone (conditioned avoidance response--CR). After further exposure to the situation, the rat becomes conditioned and climbs the pole before the buzzer is activated; when this response becomes stable, the rat is considered to have developed a secondary conditioned response (CR2).
(§2) The drug to be studied is then administered to these long-trained animals and its deconditioning effect is evaluated. […] Moreover, the activity of some of the compounds of the present invention has been tested in the antipentylenetetrazole test in mice. The experiments have been carried out by following essentially the methodology described by Berger in J. Pharm. Exptl. Ther. 104, 468, (1952). More particularly, a fatal dose of pentylentetrazole (140 mg/kg s.c.) was administered to groups of ten mice each, 30 minutes after a selected dose of the potential anticonvulsant compound. […] Since the animals of the control group died within 30 minutes, the effectiveness of the compounds tested at each dose tested was expressed as the number of animals of the group which were still alive two hours after the administration of pentylenetetrazole, out of the total number of animals of the group (10).

[3] = system: mice (pentylenetetrazole-induced death); experiment: antipentylenetetrazole test in mice; format: in vivo; details: pentylenetetrazole 140 mg/kg s.c. 30 min later, alive after 2 hours
Method: as §1, §2

[4] = LD50 (acute toxicity, i.p.); details: in vivo, ip

SMILES: c1ccc(-c2nnc3c4ccccc4c(N4CCCC4)nn23)cc1 [Example 27, 3-phenyl-6-(1-pyrrolidinyl)-1,2,4-triazolo[3,4-a]phthalazine]
- Ki [1]: 0.016 µM

SMILES: CC(O)CN(C)c1nn2c(-c3ccccc3)nnc2c2ccccc12 (stereo not drawn) [Example 29]
- Ki [1]: 0.028 µM

SMILES: c1ccc(-c2nnc3c4ccccc4c(N4CCOCC4)nn23)cc1 [Example 30]
- Ki [1]: 0.018 µM
- effect on primary conditioned and unconditioned responses (CR and U.R.) [2]: without influencing the primary conditioned and the unconditioned responses (CR and U.R.)
- effect on secondary conditioned response (CR2) [2]: effective in inhibiting the secondary conditioned response (CR2)

SMILES: COc1ccc(-c2nnc3c4ccccc4c(N(C)CC(C)O)nn23)cc1 (stereo not drawn) [Example 31]
- Ki [1]: 0.017 µM
- effect on primary conditioned and unconditioned responses (CR and U.R.) [2]: without influencing the primary conditioned and the unconditioned responses (CR and U.R.)
- effect on secondary conditioned response (CR2) [2]: effective in inhibiting the secondary conditioned response (CR2)
- Protected/treated ([3]; dose 10 mg/kg i.p.): 6/10
- Protected/treated ([3]; dose 20 mg/kg i.p.): 9/10
- LD50 [4]: ≥ 300 mg/kg

SMILES: COc1ccc(-c2nnc3c4ccccc4c(N(C)CCCO)nn23)cc1 [Example 32, N-(3-hydroxypropyl)-N-methyl-3-(4-methoxyphenyl)-1,2,4-triazolo[3,4-a]phthalazin-6-amine]
- Ki [1]: 0.000968 µM

SMILES: CNc1nn2c(-c3ccccc3)nnc2c2ccccc12 [Example 35]
- Ki [1]: 0.046 µM

SMILES: CCNc1nn2c(-c3ccccc3)nnc2c2ccccc12 [Example 36]
- Ki [1]: 0.048 µM

SMILES: CN(C)c1nn2c(-c3ccccc3)nnc2c2ccccc12 [Example 41]
- Ki [1]: 0.021 µM

SMILES: CCN(CC)c1nn2c(-c3ccccc3)nnc2c2ccccc12 [Example 42]
- Ki [1]: 0.057 µM

SMILES: c1ccc(-c2nnc3c4ccccc4c(N4CCCCC4)nn23)cc1 [Example 43]
- Ki [1]: 0.016 µM

SMILES: CN1CCN(c2nn3c(-c4ccccc4)nnc3c3ccccc23)CC1 [Example 44]
- Ki [1]: 0.057 µM

SMILES: CC1(C)CN(c2nn3c(-c4ccccc4)nnc3c3ccccc23)C1 [Example 45]
- Ki [1]: 0.032 µM
- effect on primary conditioned and unconditioned responses (CR and U.R.) [2]: without influencing the primary conditioned and the unconditioned responses (CR and U.R.)
- effect on secondary conditioned response (CR2) [2]: effective in inhibiting the secondary conditioned response (CR2)

SMILES: CCN(C)c1nn2c(-c3ccccc3)nnc2c2ccccc12 [Example 46]
- Ki [1]: 0.014 µM

SMILES: COc1ccc(-c2nnc3c4ccccc4c(N4CCCC4)nn23)cc1 [Example 47]
- Ki [1]: 0.0039 µM

SMILES: CC(=O)Nc1ccc(-c2nnc3c4ccccc4c(N4CCCC4)nn23)cc1 [Example 51]
- Ki [1]: 0.04 µM

SMILES: COc1ccc(-c2nnc3c4ccccc4c(N4CCCC4)nn23)cc1OC [Example 54]
- effect on primary conditioned and unconditioned responses (CR and U.R.) [2]: without influencing the primary conditioned and the unconditioned responses (CR and U.R.)
- effect on secondary conditioned response (CR2) [2]: effective in inhibiting the secondary conditioned response (CR2)

SMILES: Fc1ccc(-c2nnc3c4ccccc4c(N4CCCC4)nn23)cc1 [Example 64]
- Ki [1]: 0.02 µM

SMILES: COCCN(CCOC)c1nn2c(-c3ccc(OC)cc3)nnc2c2ccccc12 [Example 67]
- Ki [1]: 0.0027 µM
- effect on primary conditioned and unconditioned responses (CR and U.R.) [2]: without influencing the primary conditioned and the unconditioned responses (CR and U.R.)
- effect on secondary conditioned response (CR2) [2]: effective in inhibiting the secondary conditioned response (CR2)
- Protected/treated ([3]; dose 5 mg/kg i.p.): 4/10
- Protected/treated ([3]; dose 10 mg/kg i.p.): 8/10
- LD50 [4]: ≥ 300 mg/kg

SMILES: CCOC(=O)C1CCN(c2nn3c(-c4ccc(OC)cc4)nnc3c3ccccc23)CC1 [Example 72]
- Ki [1]: 0.0015 µM
- effect on primary conditioned and unconditioned responses (CR and U.R.) [2]: without influencing the primary conditioned and the unconditioned responses (CR and U.R.)
- effect on secondary conditioned response (CR2) [2]: effective in inhibiting the secondary conditioned response (CR2)

SMILES: CC1CC(C)CN(c2nn3c(-c4ccccc4)nnc3c3ccccc23)C1 (stereo not drawn) [Example 73]
- Ki [1]: 0.21 µM
- effect on primary conditioned and unconditioned responses (CR and U.R.) [2]: without influencing the primary conditioned and the unconditioned responses (CR and U.R.)
- effect on secondary conditioned response (CR2) [2]: effective in inhibiting the secondary conditioned response (CR2)

SMILES: Oc1ccc(-c2nnc3c4ccccc4c(N4CCCC4)nn23)cc1 [Example 74]
- Ki [1]: 0.017 µM

SMILES: Nc1ccc(-c2nnc3c4ccccc4c(N4CCCC4)nn23)cc1 [Example 75]
- Ki [1]: 0.029 µM

SMILES: COc1ccc(-c2nnc3c4ccccc4c(N4CCC(O)C4)nn23)cc1 (stereo not drawn) [Example 79]
- Ki [1]: 0.0027 µM

SMILES: CCOc1nn2c(-c3ccccc3)nnc2c2ccccc12 [Example 85, 6-ethoxy-3-phenyl-1,2,4-triazolo[3,4-a]phthalazine]
- Ki [1]: 0.0078 µM

SMILES: CCCCCOc1ccc(-c2nnc3c4ccccc4c(OCC)nn23)cc1OC [Example 93]
- effect on primary conditioned and unconditioned responses (CR and U.R.) [2]: without influencing the primary conditioned and the unconditioned responses (CR and U.R.)
- effect on secondary conditioned response (CR2) [2]: effective in inhibiting the secondary conditioned response (CR2)

SMILES: CCOc1nn2c(-c3ccc(OC)cc3)nnc2c2ccccc12 [Example 101]
- Ki [1]: 0.0029 µM

SMILES: COc1ccc(-c2nnc3c4ccccc4c(OCCCCO)nn23)cc1 [Example 103, 6-(4-hydroxybutoxy)-3-(4-methoxyphenyl)-1,2,4-triazolo[3,4-a]phthalazine]
- Ki [1]: 0.000427 µM

SMILES: CCOC(=O)CCCOc1nn2c(-c3ccc(OC)cc3)nnc2c2ccccc12 [Example 104, 4[[3-(4-methoxyphenyl)-1,2,4-triazolo[3,4-a]phthalazin-6-yl]oxy]butanoic acid ethyl ester]
- Ki [1]: 0.000806 µM

SMILES: COCCOc1nn2c(-c3ccc(OC)cc3)nnc2c2ccccc12 [Example 105, 6-(2-methoxyethoxy)-3-(4-methoxyphenyl)-1,2,4-triazolo[3,4-a]phthalazine]
- Ki [1]: 0.0009 µM
- effect on primary conditioned and unconditioned responses (CR and U.R.) [2]: without influencing the primary conditioned and the unconditioned responses (CR and U.R.)
- effect on secondary conditioned response (CR2) [2]: effective in inhibiting the secondary conditioned response (CR2)
- Protected/treated ([3]; dose 15 mg/kg i.p.): 3/10
- Protected/treated ([3]; dose 25 mg/kg i.p.): 8/10
- LD50 [4]: ~500 mg/kg

SMILES: COc1ccc(-c2nnc3c4ccccc4c(N(C)CCCC#N)nn23)cc1 [Example 107, 4-[[3-(4-methoxyphenyl)-1,2,4-triazolo [3,4-a]phthalazin-6-yl]methylamino]butanonitrile]
- Ki [1]: 0.000565 µM

SMILES: CCOC(=O)CCCN(C)c1nn2c(-c3ccc(OC)cc3)nnc2c2ccccc12 [Example 108]
- Ki [1]: 0.000524 µM

SMILES: CCS(=O)(=O)c1nn2c(-c3ccccc3)nnc2c2ccccc12 [Example 112, 6-(ethyl-sulfonyl)-3-phenyl-1,2,4-triazolo[3,4-a]phthalazine]
- Ki [1]: 0.06 µM
- effect on primary conditioned and unconditioned responses (CR and U.R.) [2]: without influencing the primary conditioned and the unconditioned responses (CR and U.R.)
- effect on secondary conditioned response (CR2) [2]: effective in inhibiting the secondary conditioned response (CR2)

SMILES: c1ccc(-c2nn3cnnc3c3ccccc23)cc1 [Example 114, 6-phenyl-1,2,4-triazolo[3,4-a]phthalazine]
- effect on primary conditioned and unconditioned responses (CR and U.R.) [2]: without influencing the primary conditioned and the unconditioned responses (CR and U.R.)
- effect on secondary conditioned response (CR2) [2]: effective in inhibiting the secondary conditioned response (CR2)

SMILES: CCN(CC)CCN1C(=O)CN=C(c2ccccc2F)c2cc(Cl)ccc21 [Flurazepam, reference compound]
- Ki [1]: 0.00858 µM

SMILES: O=C1Nc2ccc(Cl)cc2C(c2ccccc2)=NC1O (stereo not drawn) [Oxazepam, reference compound]
- Ki [1]: 0.0052 µM

— patent publication US4788186A, “6-substituted-s-triazolo[3,4-a]phthalazine derivatives” (Gruppo Lepetit S.p.A., priority 1982, dated 1988)
